This note sets out measurements from patent US8648045B2, “VDAC1 compositions and methods of use thereof for regulating apoptosis” (Ben Gurion University of the Negev Research and Development …, priority 2005, dated 2014).

Structures are written as SMILES. Where two headings read alike, the source gives them in different places. Peptide text beside a SMILES is read from it.

One test has as its system B-16. The test can be described thus: Apoptosis induction by various stimuli (acridine orange/ethidium bromide staining). It is filed as cell-based, mouse. On the procedure:
(§1) Cells were plated at a density of 5.4×10^4 cells/cm^2 in 24-well plates, washed once with PBS and placed in serum-free medium. Cells were then incubated with or without RuR or Ru360. Cells were also treated with […] staurosporine (STS) to induce apoptosis and analyzed for viability 3, 5 and 7 hrs after STS addition. Treatments with curcumin (120 μM) or As2O3 (20 μM) were carried out for 48 hrs.
(§2) To determine cell viability, cells were stained with 100 μg/ml acridine orange (AcOr) and 100 μg/ml ethidium bromide (EtBr) in PBS. Cells were centrifuged at 1500×g for 5 min at room temperature and resuspended in 25 μl of complete medium, to which 2 μl of AcOr/EtBr solution were added. The cells were then visualized by fluorescence microscopy (Olympus IX51) and images were recorded on an Olympus DP70 camera, using a SWB filter.
(§3) Cells were incubated with curcumin (120 μM) or As2O3 (20 μM) for 48 hrs, or with STS (1.25 μM) for 7 hrs. Cell viability was analyzed by acridine orange/ethidium Bromide staining. In each independent experiment, approximately 250 cells were counted for each treatment, in which early and late apoptotic cells were also counted. The data shown in table 3 is the mean±S.E.M. (n=3).

For the next test, the system named is Panc. The test is described as above. Format: cell-based, human. As to the method: as §1, §2, §3
Another test deals with HeLa. The test is described as above. It is filed as cell-based, human. On the procedure:
as §1, §2, §3

The next test has as its system Du-145. Described as above. Format: cell-based, human. On the procedure:
as §1, §2, §3

Test [1] deals with PBMCs isolated from CLL patients. Format: cell-based, human. As to the method: Peripheral blood mononuclear cells (PBMCs) were isolated from venous blood of patients with chronic lymphocytic leukemia (CLL) by Ficoll-Paque PLUS (GE Healthcare, Israel) density gradient centrifugation. After informed consent, venous blood (10 ml) was drawn from CLL patients satisfying diagnostic criteria for CLL or from normal adult donors. Blood was collected into heparin tubes and diluted 1:1 with balance solution (composed of two stock solutions, A and B, in 1:9 ratio, respectively. Solution A contained: D-glucose 1%, CaCl2 5×10^−5M, MgCl2 9.8×10^−4M, KCl 5.4×10^−3M, Tris 0.145M, pH 7.6. Solution B contained NaCl 0.14M. The balance solution was prepared freshly every week. The diluted blood sample was subsequently carefully layered on Ficoll-Paque Plus (10 ml of diluted blood: 15 ml Ficoll) in 50 ml conical tubes. Tubes were centrifuged at 400×g (with minimal acceleration and deceleration) for 40 minutes at 18-20° C. The mononuclear cells fine layer was transferred to a new centrifuge tube. Cells were washed 3 times with balance solution and re-suspended in a culture medium appropriate to the application.
(§4) PBMCs (2×10^6 cells/sample) from CLL patients and healthy donors were treated with various concentrations of the peptide Antp-LP4-trp for 90 minutes. Cells were then gently washed once with PBS and stained with propidium iodide (PI) by adding 2.5 μl (1 mg/ml) and immediately analyzed for cell death. The level of cell death, reflected by the percentage of PI-positive cells, was determined by a flow cytometry analysis.
(§5) Preipheral blood mononuclear cells (PMBC) isolated from pateints having chronic lymphocytic leukemia (CLL) and MEC-1 cell lines (human chronic B-cell leukemia) were incubated for 90 min with Peptide N-ANTP (SEQ ID NO:73) at concentrations of 10-40 μM. Cell death was measured by PI staning and FACS analysis.
In ex vivo experiments, peripheral blood mononuclear cells (PBMCs) isolated from healthy individuals or CLL patients were incubated for 90 min with the indicated concentration of the ANTP-LP4-trp peptide. Cell death was assayed by PI staining and FACS analysis (healthy donors, n=34; CLL donors, n=39).

The subject of the next test is MEC-1 cell line. It is filed as cell-based, human. As to the method: as §4, §5

In the case of `O=[As]O[As]=O` (stereo not shown) [As2O3], the “Apoptotic cell death, % of control” value is reported as 15.0 ± 1.99 % of control with B-16 (As2O3 20 μM, 48 hrs); 67.20 ± 3.87 % of control with Panc (As2O3 20 μM, 48 hrs); 24.67 ± 2.65 % of control with HeLa (As2O3 20 μM, 48 hrs); 6.0 ± 0.80 % of control with Du-145 (As2O3 20 μM, 48 hrs).
Turning to `COc1cc(/C=C/C(=O)CC(=O)/C=C/c2ccc(O)c(OC)c2)ccc1O` [Curcumin, curcumin], the “Apoptotic cell death, % of control” value is given as 37.47 ± 2.20 % of control in the test on B-16 (curcumin 120 μM, 48 hrs); 70.77 ± 4.31 % of control with Panc (curcumin 120 μM, 48 hrs); 36.2 ± 0.70 % of control with HeLa (curcumin 120 μM, 48 hrs); 8.93 ± 0.47 % of control in the test with Du-145 (curcumin 120 μM, 48 hrs).
Take `CN[C@@H]1C[C@H]2O[C@@](C)([C@@H]1OC)n1c3ccccc3c3c4c(c5c6ccccc6n2c5c31)C(=O)NC4` [STS, staurosporine]: the “Apoptotic cell death, % of control” value in the test on B-16 (STS 1.25 μM, 7 hrs) is 63.12 ± 0.71 % of control; in the test with Panc (STS 1.25 μM, 7 hrs) it was 84.90 ± 2.06 % of control; in the test with HeLa (STS 1.25 μM, 7 hrs), 72.37 ± 1.30 % of control; with Du-145 (STS 1.25 μM, 7 hrs), 13.57 ± 4.73 % of control.
As for `CC(C)C[C@H](NC(=O)[C@H](CC(N)=O)NC(=O)[C@@H](NC(=O)[C@H](C)NC(=O)[C@@H](NC(=O)[C@H](CCC(=O)O)NC(=O)[C@H](CC(C)C)NC(=O)[C@H](CCCCN)NC(=O)[C@H](CCCCN)NC(=O)[C@H](CCC(=O)O)NC(=O)[C@H](Cc1c[nH]c2ccccc12)NC(=O)[C@@H](NC(=O)[C@H](Cc1c[nH]c2ccccc12)NC(=O)[C@H](CO)NC(=O)CNC(=O)CNC(=O)[C@H](CCCNC(=N)N)NC(=O)[C@H](CCCNC(=N)N)NC(=O)[C@H](CCCNC(=N)N)NC(=O)[C@H](CCC(N)=O)NC(=O)[C@H](CCCNC(=N)N)NC(=O)[C@H](CCCNC(=N)N)NC(=O)[C@H](CCCCN)NC(=O)[C@H](CCCCN)NC(=O)[C@@H](N)CCCNC(=N)N)[C@@H](C)O)[C@@H](C)O)C(C)C)C(=O)N[C@@H](C)C(=O)N[C@@H](Cc1c[nH]c2ccccc12)C(=O)N[C@H](C(=O)N[C@@H](C)C(=O)NCC(=O)N[C@@H](CC(N)=O)C(=O)N[C@@H](CO)C(=O)N[C@@H](CC(N)=O)C(=O)N[C@@H](CCCCN)C(=O)N[C@@H](Cc1c[nH]c2ccccc12)C(=O)N[C@H](C(=O)N[C@@H](Cc1c[nH]c2ccccc12)C(=O)N[C@@H](CCCCN)C(=O)O)[C@@H](C)O)[C@@H](C)O` [TAT-LP4-trp] (H-RKKRRQRRRGGSWTWEKKLETAVNLAWTAGNSNKWTWK-OH; N-terminus and C-terminus assumed), the IC50 (commonly the point on the concentration scale where inhibition reaches its midpoint) in test [1] (peptide concentration required to induce apoptosis in 50% of the cells, PBMC from CLL patients, read-out: IC50 μM CLL) lay in the range of 3.5 to 4 µM; in the test with MEC-1 cell line (peptide concentration required to induce apoptosis in 50% of the cells, MEC-1, read-out: IC50 μM MEC-1) it was 6 to 7 µM.
Turning to `CC[C@H](C)[C@H](NC(=O)[C@H](C)NC(=O)[C@@H](N)Cc1c[nH]cn1)C(=O)N[C@@H](Cc1ccc(O)cc1)C(=O)N1CCC[C@H]1C(=O)N[C@@H](CCCNC(=N)N)C(=O)N[C@@H](Cc1c[nH]cn1)C(=O)N[C@@H](CO)C(=O)N[C@@H](Cc1c[nH]c2ccccc12)C(=O)N[C@H](C(=O)N[C@@H](Cc1c[nH]c2ccccc12)C(=O)N[C@@H](CCC(=O)O)C(=O)N[C@@H](CCCCN)C(=O)N[C@@H](CCCCN)C(=O)N[C@@H](CC(C)C)C(=O)N[C@@H](CCC(=O)O)C(=O)N[C@H](C(=O)N[C@@H](C)C(=O)N[C@H](C(=O)N[C@@H](CC(N)=O)C(=O)N[C@@H](CC(C)C)C(=O)N[C@@H](C)C(=O)N[C@@H](Cc1c[nH]c2ccccc12)C(=O)N[C@H](C(=O)N[C@@H](C)C(=O)NCC(=O)N[C@@H](CC(N)=O)C(=O)N[C@@H](CO)C(=O)N[C@@H](CC(N)=O)C(=O)N[C@@H](CCCCN)C(=O)N[C@@H](Cc1c[nH]c2ccccc12)C(=O)N[C@H](C(=O)N[C@@H](Cc1c[nH]c2ccccc12)C(=O)N[C@@H](CCCCN)C(=O)O)[C@@H](C)O)[C@@H](C)O)C(C)C)[C@@H](C)O)[C@@H](C)O` [Tf-LP4-trp], the IC50 was in the range of 1.5 to 2 µM in test [1] and 2.4 to 3 µM with MEC-1 cell line.
